Here are results for six molecules from patent US8658382B2, “Proteins with pteridine glycosyltransferase activity and analysis method using the same” (Inje University Industry-Academic Cooperation Foundation, priority 2008, dated 2014).

One data set relates to BGluT. Description: Pteridines as substrate or competitive inhibitor of the BGluT reaction. Format: biochemical, Synechococcus sp. PCC 7942. The conditions noted are these: for glucosylated product formed from the pteridine as substrate of BGluT: pteridine concentration increased to 5 μM, data not shown. How it is done:
Unless otherwise specified, the following standard reaction conditions were used for the determination of tetrahydrobiopterin and its oxidized forms. Reactions were carried out in a final volume of 100 μl, which consisted of 50 mM Tris-HCl (pH 7.5), 10 mM MgCl2, 0.05% ascorbic acid, 500 μM UDP-glucose, 1 μg of BGluT, and an aliquot of pteridines or tissue extracts. The reaction mixture was incubated for 20 minutes at 37° C. and then mixed with 30 μl of acidic iodine solution (2% KIM % I2 in 1 N HCl). After 1 hour in the dark at room temperature, the oxidized mixture was centrifuged. The supernatant was mixed with 10 μl of 5% ascorbic acid and then neutralized with 30 μl of 1 N NaOH for injection to HPLC.
(§1) The HPLC system consisted of Gilson 321 pump, Gilson 234 autoinjector, a fluorescence detector (Schimadzu RF-10AXL), and a system software (Gilson Unipoint version 5.11). Chromatography was performed on a guard column (10 μm, 4.3 mm×1 cm) and an Inertsil ODS-3 (5 μm, 150×2.3 mm, GL Science, Japan) equilibrated with 10 mM potassium phosphate buffer (pH 6.0) at room temperature. Pteridines were eluted isocratically at a flow rate of 1.2 ml/min and monitored at 350/450 nm (excitation/emission). Pteridine peaks were identified and quantified using authentic pteridines, which were purchased from Dr. B. Schirck's Lab (Jona, Switzerland). Biopterin-glucoside was isolated from Synechococcus sp. PCC 7942 (Y. K. Choi, Y. K. Hwang, Y. H. Kang, Y. S. Park, Chemical structure of 1-O-(L-erythro-biopterin-2′-yl)-alpha-glucose isolated from a cyanobacterium Synechococcus sp. PCC 7942, Pteridines, 12 (2001) 121-125).
To determine whether the presence of dihydrobiopterin, structurally similar to tetrahydrobiopterin, interferes with glucosylation of tetrahydrobiopterin, 1 μM of dihydrobiopterin was added to the same mixture for enzyme reaction as in FIG. 1B, which was then oxidized under acidic condition.
Biological samples contain tetrahydrobiopterin as well as its oxidized forms (dihydrobiopterin and bipterin). In order to quantitatively analyze only tetrahydrobiopterin selectively using BGluT, the BGluT reaction should be specific to tetrahydrobiopterin, without being interfered by its oxidized forms. Using various pteridines (dihydrobiopterin, biopterin, neopterin, tetrahydroneopterin, and isomers thereof) as a substrate, potential inhibitory effect was evaluated. […] It therefore was suspected that dihydrobiopterin might function as a competitive inhibitor in glucosylation of tetrahydrobiopterin by BGluT.
However, when the concentration of dihydrobiopterin is higher than tetrahydrobiopterin, dihydrobiopterin could show inhibitory effects. In order to examine whether dihydrobiopterin interferes with the BGluT reaction, dihydrobiopterin was coincubated under the standard reaction condition with a fixed amount (0.25 μM) of tetrahydrobiopterin, along with increasing concentrations of dihydrobiopterin up to 4-fold (0.05˜1 μM) (see FIG. 4). In FIG. 4, the X-axis represents concentrations of dihydrobiopterin added to the reaction solution and the Y-axis represents peak areas of the glucosylated product produced from tetrahydrobiopterin. The results thereof show means±standard deviations of the peak areas of biopterin-glucoside, which were obtained from triplicate assays. […] In general, the concentrations of the oxidized forms of tetrahydrobiopterin in a biological sample are not higher than that of tetrahydrobiopterin.
In order to examine whether the added dihydrobiopterin has been glucosylated even in small amount, the peak areas of biopterin originated from the dihydrobiopterin (X-axis) were compared with those determined from the same concentration of dihydrobiopterin without enzyme reaction (Y-axis) (FIG. 4 (insert)). The slope obtained from regression line was almost 1.

Data set [1] is described as follows: Pteridine glycosyltransferase activity with human urine. The class given is biochemical. The conditions noted are these: 1 μg protein, 10 μl human urine in 100 μl, FIG. 12. How it is done:
Also, 1 μg of each protein was added to 100 μl of reaction solution containing 10 μl of human urine instead of tetrahydrobiopterin. The reaction mixture was incubated at for 20 minutes. For CY-49, 500 μM UDP-xylose was added as a substrate; and for other enzymes, UDP-glucose was added. Other reaction conditions were the same as in the above.

A short description of data set [2]: Analysis of protein activity of the recombinant proteins with UDP-glycosides. Format: biochemical. The conditions noted are these: for pteridine glycosyltransferase activity (sugar bound to tetrahydrobiopterin): 1 μM tetrahydrobiopterin, 500 μM UDP-glycoside, HPLC, FIG. 10. How it is done: The protein activity was assayed in 100 μl of reaction mixture having the following composition: 50 mM Tris-HCl (pH 7.5), 10 mM MgCl2, 0.2% ascorbic acid, 1 μM tetrahydrobiopterin, 500 μM UDP-glycoside (one of UDP-glucose, UDP-galactose, UDP-xylose, UDP-glucuronic acid, UDP-galacturonic acid, UDP-N-acetylglucosamine, and UDP-N-acetylgalactosamine) and an appropriate amount of the purified recombinant protein. The reaction was performed at 37 for 10-60 minutes depending on an amount of protein. 30 μl of acidic iodine solution (2%/1% KI/I2 in 1 M HCl) was added to the reaction mixture and allowed in darkness for 1 hour for oxidation thereof. The mixture was centrifuged to recover the supernatant, which was then mixed with 10 μl of 5% ascorbic acid. 30 μl of 1N NaOH was added to the resulting mixture for neutralization and then HPLC analysis was carried out.
as §1, with “HPLC” for “The HPLC”, “quantified by” for “quantified”

In the case of `C[C@H](O)[C@H](O)C1=Nc2c(nc(N)[nH]c2=O)NC1` [dihydrobiopterin], the “slope of regression line, biopterin-glucoside peak area against dihydrobiopterin concentration” value in the data set on BGluT (0.25 μM tetrahydrobiopterin, 0.05~1 μM dihydrobiopterin, standard reaction condition, FIG. 4) is “zero”. Also, the “effect of added dihydrobiopterin on glucosylation of tetrahydrobiopterin” value with BGluT (1 μM dihydrobiopterin added, FIG. 1C) is “no significant difference in the amounts of glucosylated products of tetrahydrobiopterin”. For the same molecule, the “slope of regression line, biopterin from dihydrobiopterin with BGluT against without enzyme reaction” value in the data set with BGluT (FIG. 4 (insert)) is ~1. The “glucosylated product formed from the pteridine as substrate of BGluT” value (shortened to “glucosylated product formed”) in the data set on BGluT is given as “a small amount of glucosylated product”.
For the molecule `Nc1nc2ncc([C@H](O)[C@H](O)CO)nc2c(=O)[nH]1` [neopterin], the “glucosylated product formed” value with BGluT is recorded as “only dihydrobiopterin among the pteridines showed”.
With `Nc1nc2c(c(=O)[nH]1)NC(C(O)C(O)CO)CN2` (stereo not shown) [tetrahydroneopterin], in the data set on BGluT, the “glucosylated product formed” value is on record as “only dihydrobiopterin among the pteridines showed”.
biopterin: the “glucosylated product formed” value in the data set on BGluT is “only dihydrobiopterin among the pteridines showed”.

B1: UICB: recombinant pteridine glycosyltransferase from unidentified wild cyanobacteria B, amino acid SEQ ID NO 5 (protein)
chain: LSRKLLFLSTPVGFLGSGDGGGVELTIYNLARTLNKQGYAVRVAAPEASQLQDIPLITMAGNAQISAQSQGREAPILMPENAVLANMWHYAQQVQKQYDLIVNFAYDWLPFYLTPFFATPVAHLVSMASVSLAMDHINEKTYSNFPHLLAFHTLAQAETFSLSPPYRCLANGLDVSLYQFRDDPSPCLAWVGRIAPEKALEDAIAACQQLGVPLRVFGHISDPLYWQNSQDTYSFDLVDYRGFLPTGSLQKELGDCFGLLMTPRWVEAFGNVAIEALACGVPVVAYRRGGPVEIIEEGKTGFLVEPDSIEGLVTGIKNLDRIDRYSCRAVVEQKYSLEASANRAINWFEEIFARKK
modifications: Unidentified cyanobacteria sp.
For the molecule B1, the “HPLC chromatogram of the reaction mixture with human urine” value in data set [1] is “very similar to that of BGluT”. In data set [2], the Substrate for glucosylation entry is “Glucose” and the “pteridine glycosyltransferase activity (sugar bound to tetrahydrobiopterin)” value was “an activity for binding glucose to tetrahydrobiopterin”.

B2: UICA: recombinant pteridine glycosyltransferase from unidentified wild cyanobacteria A, amino acid SEQ ID NO 4 (protein)
chain: LSRKLLFLSTPVGFLGSGGGGGVELTIYNLARTLNKQGYAVRVVAPEASQLQDIPLITIAGNAQISAQSQDREAPILIPENAVLANMWHYAQQVQNEYDLIVNFAYDWLPFYLTPFFATPVAHLVSMASVSLAMDNIIQKTYRSFPHSLAFHTVTQAETFSLSPPYRRLANGLDVSLYQFRADPSPCLAWVGRIAPEKALEGAIAACQQLGVPLRVFGHISNPLYWQNLQDTYSFDLVDYRGFLPTGSLQKELGDCFGLLMTPGWVEAFGNVAIEALACGVPVVAYRRGGPVEIIEEGKTGFLVEPDSIEGLVTGIKNLDRIDRYSCRAVVEQKYSLEALANRAINWFDEIFARKK
modifications: Unidentified cyanobacteria sp.
Consider B2, for which the “HPLC chromatogram of the reaction mixture with human urine” value in data set [1] is recorded as “very similar to that of BGluT”. Moreover, in data set [2], the Substrate for glucosylation entry is given as “Glucose” and the “pteridine glycosyltransferase activity (sugar bound to tetrahydrobiopterin)” value was “an activity for binding glucose to tetrahydrobiopterin”.
